Read-outs that look alike come from different tables or passages of the source.
What was measured:
Assay in all cases: cell-based
hNav1.5 [1] = target: T1, hNav1.5 (Homo sapiens, UniProt Q14524); conditions: Table 12; ratio of PX tonic IC50 values
hNav1.4 [2] = target: T2, hNav1.4 (Homo sapiens, UniProt P35499); format: cell-based; conditions: Table 12; ratio of PX tonic IC50 values
hNav1.6 = hNav1.6 (Homo sapiens, UniProt Q9UQD0); format: cell-based; conditions: Table 15
hNav1.4 [3] = target: T2, hNav1.4; format: cell-based; conditions: Table 6
hNav1.3 = hNav1.3 (Homo sapiens, UniProt Q9NY46); conditions: IonWorks Quattro; Table 6; read-out: IC50 (μM) Nav1.3
hNav1.7 [4] = target: T3, hNav1.7 (Homo sapiens, UniProt Q15858); conditions: read-out: IC50 (μM) Nav1.7
T3 sequence (Q15858 whole entry): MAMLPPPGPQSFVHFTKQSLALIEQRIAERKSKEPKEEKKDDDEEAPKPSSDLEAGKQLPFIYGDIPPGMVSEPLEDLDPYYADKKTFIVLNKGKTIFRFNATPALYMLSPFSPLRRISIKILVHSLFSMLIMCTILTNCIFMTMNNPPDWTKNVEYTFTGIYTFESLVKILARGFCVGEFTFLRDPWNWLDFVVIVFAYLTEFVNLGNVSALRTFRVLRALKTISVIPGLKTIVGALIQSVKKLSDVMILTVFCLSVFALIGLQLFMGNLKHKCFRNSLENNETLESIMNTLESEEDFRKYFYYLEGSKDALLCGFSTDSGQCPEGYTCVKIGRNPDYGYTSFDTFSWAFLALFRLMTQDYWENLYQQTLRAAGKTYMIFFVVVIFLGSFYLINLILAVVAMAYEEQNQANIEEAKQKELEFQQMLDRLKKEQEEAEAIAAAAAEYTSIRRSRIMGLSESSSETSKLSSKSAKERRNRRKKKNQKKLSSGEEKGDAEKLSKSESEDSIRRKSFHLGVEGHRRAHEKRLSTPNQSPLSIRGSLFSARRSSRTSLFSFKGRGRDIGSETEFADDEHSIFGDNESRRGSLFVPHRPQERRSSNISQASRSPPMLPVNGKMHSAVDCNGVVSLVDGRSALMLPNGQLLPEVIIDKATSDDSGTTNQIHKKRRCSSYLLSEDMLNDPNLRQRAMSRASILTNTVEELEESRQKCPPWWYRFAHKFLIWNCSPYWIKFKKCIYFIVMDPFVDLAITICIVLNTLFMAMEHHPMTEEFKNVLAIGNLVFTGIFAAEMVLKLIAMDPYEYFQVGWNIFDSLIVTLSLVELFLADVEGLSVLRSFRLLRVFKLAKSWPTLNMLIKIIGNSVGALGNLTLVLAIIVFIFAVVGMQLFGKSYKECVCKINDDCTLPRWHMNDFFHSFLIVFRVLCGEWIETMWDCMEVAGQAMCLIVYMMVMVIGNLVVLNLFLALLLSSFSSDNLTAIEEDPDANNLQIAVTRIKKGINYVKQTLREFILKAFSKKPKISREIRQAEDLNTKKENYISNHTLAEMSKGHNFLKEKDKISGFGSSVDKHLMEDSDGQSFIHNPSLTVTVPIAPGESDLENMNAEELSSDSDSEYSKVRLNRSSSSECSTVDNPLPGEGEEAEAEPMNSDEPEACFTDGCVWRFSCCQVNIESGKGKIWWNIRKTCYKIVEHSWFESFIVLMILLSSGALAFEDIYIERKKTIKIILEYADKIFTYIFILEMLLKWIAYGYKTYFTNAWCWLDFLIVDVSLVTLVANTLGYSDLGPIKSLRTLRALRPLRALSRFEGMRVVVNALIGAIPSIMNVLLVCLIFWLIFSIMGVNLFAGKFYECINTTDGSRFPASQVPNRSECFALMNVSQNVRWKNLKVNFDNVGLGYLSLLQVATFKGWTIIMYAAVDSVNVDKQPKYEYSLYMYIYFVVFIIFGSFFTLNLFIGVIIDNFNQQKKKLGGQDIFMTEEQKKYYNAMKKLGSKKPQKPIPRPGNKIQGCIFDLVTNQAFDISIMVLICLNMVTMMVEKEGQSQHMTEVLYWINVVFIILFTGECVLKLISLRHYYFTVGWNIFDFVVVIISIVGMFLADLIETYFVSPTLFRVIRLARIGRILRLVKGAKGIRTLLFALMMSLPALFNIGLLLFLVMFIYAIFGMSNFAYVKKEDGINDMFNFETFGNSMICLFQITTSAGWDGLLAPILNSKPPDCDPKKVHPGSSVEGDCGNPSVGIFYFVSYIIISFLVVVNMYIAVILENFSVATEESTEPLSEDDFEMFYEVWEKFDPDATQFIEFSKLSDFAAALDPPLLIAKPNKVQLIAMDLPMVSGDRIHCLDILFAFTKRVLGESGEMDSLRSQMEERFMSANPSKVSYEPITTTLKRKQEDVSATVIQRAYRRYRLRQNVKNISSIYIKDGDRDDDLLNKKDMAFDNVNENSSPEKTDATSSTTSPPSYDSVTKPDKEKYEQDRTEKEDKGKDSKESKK

hNav1.5 [5] = target: T1, hNav1.5; conditions: IonWorks Quattro; Table 6; read-out: IC50 (μM) Nav1.5
hNav1.7 [6] = target: T3, hNav1.7; format: cell-based
[7] = ratio of PX tonic IC50 values, Table 11

T1 sequence (Q14524 whole entry): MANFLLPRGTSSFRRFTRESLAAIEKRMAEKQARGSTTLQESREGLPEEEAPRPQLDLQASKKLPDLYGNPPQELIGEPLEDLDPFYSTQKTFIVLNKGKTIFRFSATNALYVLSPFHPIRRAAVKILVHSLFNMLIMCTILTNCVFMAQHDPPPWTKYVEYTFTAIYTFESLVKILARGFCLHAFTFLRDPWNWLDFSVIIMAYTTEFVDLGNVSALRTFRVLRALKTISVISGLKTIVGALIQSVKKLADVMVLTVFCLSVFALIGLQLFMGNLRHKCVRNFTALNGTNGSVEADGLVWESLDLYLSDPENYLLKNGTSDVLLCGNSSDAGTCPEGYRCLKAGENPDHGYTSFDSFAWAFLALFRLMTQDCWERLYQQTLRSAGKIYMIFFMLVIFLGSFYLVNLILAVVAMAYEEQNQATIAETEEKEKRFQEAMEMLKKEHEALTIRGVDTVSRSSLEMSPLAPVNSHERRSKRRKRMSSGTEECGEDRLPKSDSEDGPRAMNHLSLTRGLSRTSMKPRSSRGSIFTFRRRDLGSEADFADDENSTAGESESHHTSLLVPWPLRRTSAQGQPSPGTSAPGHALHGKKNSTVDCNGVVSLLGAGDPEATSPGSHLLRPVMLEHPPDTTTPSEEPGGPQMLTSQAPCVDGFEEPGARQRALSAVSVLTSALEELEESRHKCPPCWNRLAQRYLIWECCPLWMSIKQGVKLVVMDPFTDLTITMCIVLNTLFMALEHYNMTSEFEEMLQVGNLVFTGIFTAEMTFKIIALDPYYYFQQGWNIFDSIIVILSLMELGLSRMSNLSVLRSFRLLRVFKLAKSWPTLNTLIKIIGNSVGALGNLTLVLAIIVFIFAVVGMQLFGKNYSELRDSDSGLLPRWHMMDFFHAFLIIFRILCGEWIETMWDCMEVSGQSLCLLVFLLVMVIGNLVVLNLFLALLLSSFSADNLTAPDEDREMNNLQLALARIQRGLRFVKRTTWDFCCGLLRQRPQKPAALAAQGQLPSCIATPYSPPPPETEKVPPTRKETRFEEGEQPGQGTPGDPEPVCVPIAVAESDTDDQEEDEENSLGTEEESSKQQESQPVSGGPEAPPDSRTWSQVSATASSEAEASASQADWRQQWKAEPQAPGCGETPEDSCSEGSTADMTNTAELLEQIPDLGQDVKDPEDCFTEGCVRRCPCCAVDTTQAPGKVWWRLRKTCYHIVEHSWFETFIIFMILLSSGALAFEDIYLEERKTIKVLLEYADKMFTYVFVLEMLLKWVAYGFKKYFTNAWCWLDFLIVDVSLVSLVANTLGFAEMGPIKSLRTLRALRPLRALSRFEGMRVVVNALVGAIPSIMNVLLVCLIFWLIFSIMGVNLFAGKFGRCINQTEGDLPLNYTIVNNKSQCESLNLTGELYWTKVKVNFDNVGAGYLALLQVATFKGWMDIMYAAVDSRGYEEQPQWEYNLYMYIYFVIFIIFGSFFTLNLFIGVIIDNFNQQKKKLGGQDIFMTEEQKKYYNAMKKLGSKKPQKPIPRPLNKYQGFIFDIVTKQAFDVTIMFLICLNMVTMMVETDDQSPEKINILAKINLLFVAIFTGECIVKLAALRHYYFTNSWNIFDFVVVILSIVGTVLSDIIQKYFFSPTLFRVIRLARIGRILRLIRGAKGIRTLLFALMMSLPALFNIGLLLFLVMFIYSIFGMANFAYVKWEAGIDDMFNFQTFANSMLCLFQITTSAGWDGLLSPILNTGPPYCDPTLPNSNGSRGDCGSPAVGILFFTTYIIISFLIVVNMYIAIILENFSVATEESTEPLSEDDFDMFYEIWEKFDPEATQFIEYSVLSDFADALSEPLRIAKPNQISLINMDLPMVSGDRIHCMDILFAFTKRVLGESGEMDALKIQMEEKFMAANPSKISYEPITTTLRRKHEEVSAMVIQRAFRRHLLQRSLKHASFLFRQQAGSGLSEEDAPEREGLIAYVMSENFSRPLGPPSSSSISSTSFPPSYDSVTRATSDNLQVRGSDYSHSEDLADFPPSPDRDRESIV

Compound | Nav1.5/Nav1.7 (hNav1.5 [1]) | Nav1.4/Nav1.7 (hNav1.4 [2]) | also measured
C#CC[C@H](N)C(=O)NCCOCCOCCOCCOCCOCCOCCOCCOCCOCCOCCOCCOCCC(=O)NCCCC[C@@H]1NC(=O)[C@H](CCCNC(=N)N)NC(=O)[C@H](CCCCN)NC(=O)[C@H](CO)NC(=O)[C@H](CC(=O)O)NC(=O)[C@@H]2CSSC[C@@H]3NC(=O)[C@H](CCC(=O)O)NC(=O)[C@H](CC(C)C)NC(=O)CNC(=O)[C@H](CCC(=O)O)NC(=O)[C@H](CSSC[C@H](NC(=O)[C@@H](N)Cc4ccc(O)cc4)C(=O)N[C@@H](CCC(N)=O)C(=O)N[C@@H](CCCCN)C(=O)N[C@@H](Cc4c[nH]c5ccccc45)C(=O)N[C@@H](CCCC)C(=O)N[C@@H](Cc4c[nH]c5ccccc45)C(=O)N[C@@H]([C@@H](C)O)C(=O)N2)NC(=O)[C@H](CSSC[C@@H](C(=O)N[C@@H](CCCNC(=N)N)C(=O)N[C@@H](CCCCN)C(=O)N[C@H](C(=O)N[C@@H](Cc2c[nH]c4ccccc24)C(N)=O)[C@@H](C)CC)NC(=O)[C@H](Cc2c[nH]c4ccccc24)NC(=O)[C@H](CC(C)C)NC(=O)[C@H](CCCCN)NC3=O)NC1=O [compound 290] | 12 | 5 | 
CCCC[C@@H]1NC(=O)[C@H](Cc2c[nH]c3ccccc23)NC(=O)[C@H](CCCCN)NC(=O)[C@H](CCC(N)=O)NC(=O)[C@@H](NC(=O)[C@@H](N)Cc2ccc(O)cc2)CSSC[C@@H]2NC(=O)[C@@H]3CSSC[C@@H](C(=O)N[C@@H](CCCNC(=N)N)C(=O)N[C@@H](CCCCN)C(=O)N[C@H](C(=O)N[C@@H](Cc4c[nH]c5ccccc45)C(N)=O)[C@@H](C)CC)NC(=O)[C@H](Cc4c[nH]c5ccccc45)NC(=O)[C@H](CC(C)C)NC(=O)[C@H](CCCCN)NC(=O)[C@H](CSSC[C@H](NC(=O)[C@H]([C@@H](C)O)NC(=O)[C@H](Cc4c[nH]c5ccccc45)NC1=O)C(=O)N[C@@H](CC(=O)O)C(=O)N[C@@H](CO)C(=O)N[C@@H](CCCCN)C(=O)N[C@@H](CCCNC(=N)N)C(=O)N[C@@H](CCCCN=[N+]=[N-])C(=O)N3)NC(=O)[C@H](CCC(=O)O)NC(=O)[C@H](CC(C)C)NC(=O)CNC(=O)[C@H](CCC(=O)O)NC2=O [compound 306] | 1712 | 550 | 
C#CC[C@H](N)C(=O)N[C@@H](Cc1ccc(O)cc1)C(=O)N[C@H]1CSSC[C@@H]2NC(=O)[C@@H]3CSSC[C@@H](C(=O)N[C@@H](CCCNC(=N)N)C(=O)N[C@@H](CCCCN)C(=O)N[C@H](C(=O)N[C@@H](Cc4c[nH]c5ccccc45)C(N)=O)[C@@H](C)CC)NC(=O)[C@H](Cc4c[nH]c5ccccc45)NC(=O)[C@H](CC(C)C)NC(=O)[C@H](CCCCN)NC(=O)[C@H](CSSC[C@H](NC(=O)[C@H]([C@@H](C)O)NC(=O)[C@H](Cc4c[nH]c5ccccc45)NC(=O)[C@H](CCC)NC(=O)[C@H](Cc4c[nH]c5ccccc45)NC(=O)[C@H](CCCCN)NC(=O)[C@H](CCC(N)=O)NC1=O)C(=O)N[C@@H](CC(=O)O)C(=O)N[C@@H](CO)C(=O)N[C@@H](CCCCN)C(=O)N[C@@H](CCCNC(=N)N)C(=O)N[C@@H](C)C(=O)N3)NC(=O)[C@H](CCC(=O)O)NC(=O)[C@H](CC(C)C)NC(=O)CNC(=O)[C@H](CCC(=O)O)NC2=O [compound 300] | 6483 | 1183 | 
C#CC[C@@H]1NC(=O)[C@H](CCCNC(=N)N)NC(=O)[C@H](CCCCN)NC(=O)[C@H](CO)NC(=O)[C@H](CC(=O)O)NC(=O)[C@@H]2CSSC[C@@H]3NC(=O)[C@H](CCC(=O)O)NC(=O)[C@H](CC(C)C)NC(=O)CNC(=O)[C@H](CCC(=O)O)NC(=O)[C@H](CSSC[C@H](NC(=O)[C@@H](N)Cc4ccc(O)cc4)C(=O)N[C@@H](CCC(N)=O)C(=O)N[C@@H](CCCCN)C(=O)N[C@@H](Cc4c[nH]c5ccccc45)C(=O)N[C@@H](CCCC)C(=O)N[C@@H](Cc4c[nH]c5ccccc45)C(=O)N[C@@H]([C@@H](C)O)C(=O)N2)NC(=O)[C@H](CSSC[C@@H](C(=O)N[C@@H](CCCNC(=N)N)C(=O)N[C@@H](CCCCN)C(=O)N[C@H](C(=O)N[C@H](C(N)=O)[C@@H](C)CC)[C@@H](C)CC)NC(=O)[C@H](Cc2c[nH]c4ccccc24)NC(=O)[C@H](CC(C)C)NC(=O)[C@H](CCCCN)NC3=O)NC1=O [compound 345] | 638 | 232 | 
C#CC[C@@H]1NC(=O)[C@H](CC(=O)O)NC(=O)[C@@H]2CSSC[C@@H]3NC(=O)[C@H](CCC(=O)O)NC(=O)[C@H](CC(C)C)NC(=O)CNC(=O)[C@H](CCC(=O)O)NC(=O)[C@H](CSSC[C@H](NC(=O)[C@@H](N)Cc4ccc(O)cc4)C(=O)N[C@@H](CCC(N)=O)C(=O)N[C@@H](CCCCN)C(=O)N[C@@H](Cc4c[nH]c5ccccc45)C(=O)N[C@@H](CCCC)C(=O)N[C@@H](Cc4c[nH]c5ccccc45)C(=O)N[C@@H]([C@@H](C)O)C(=O)N2)NC(=O)[C@H](CSSC[C@@H](C(=O)N[C@@H](CCCNC(=N)N)C(=O)N[C@@H](CCCCN)C(=O)N[C@H](C(=O)N[C@H](C(N)=O)[C@@H](C)CC)[C@@H](C)CC)NC(=O)[C@H](Cc2c[nH]c4ccccc24)NC(=O)[C@H](CC(C)C)NC(=O)[C@H](CCCCN)NC3=O)NC(=O)[C@H](C)NC(=O)[C@H](CCCNC(=N)N)NC(=O)[C@H](CCCCN)NC1=O [compound 344] | 193 | 230 | 
CCCC[C@@H]1NC(=O)[C@H](Cc2c[nH]c3ccccc23)NC(=O)[C@H](CCCCN)NC(=O)[C@H](CCC(N)=O)NC(=O)[C@@H](NC(=O)[C@@H](N)Cc2ccc(O)cc2)CSSC[C@@H]2NC(=O)[C@@H]3CSSC[C@@H](C(=O)N[C@@H](CCCNC(=N)N)C(=O)N[C@@H](CCCCN)C(=O)N[C@H](C(=O)N[C@@H](Cc4c[nH]c5ccccc45)C(N)=O)[C@@H](C)CC)NC(=O)[C@H](Cc4c[nH]c5ccccc45)NC(=O)[C@H](CC(C)C)NC(=O)[C@H](CCCCN)NC(=O)[C@H](CSSC[C@H](NC(=O)[C@H]([C@@H](C)O)NC(=O)[C@H](Cc4c[nH]c5ccccc45)NC1=O)C(=O)N[C@@H](CC(=O)O)C(=O)N[C@@H](CCCCN=[N+]=[N-])C(=O)N[C@@H](CCCCN)C(=O)N[C@@H](CCCNC(=N)N)C(=O)N[C@@H](C)C(=O)N3)NC(=O)[C@H](CCC(=O)O)NC(=O)[C@H](CC(C)C)NC(=O)CNC(=O)[C@H](CCC(=O)O)NC2=O [compound 305] | 0 | 0 | 
C#CC[C@H](N)C(=O)NCCOCCOCCOCCOCCC(=O)NCCCC[C@@H]1NC(=O)[C@H](CCCNC(=N)N)NC(=O)[C@H](CCCCN)NC(=O)[C@H](CO)NC(=O)[C@H](CC(=O)O)NC(=O)[C@@H]2CSSC[C@@H]3NC(=O)[C@H](CCC(=O)O)NC(=O)[C@H](CC(C)C)NC(=O)CNC(=O)[C@H](CCC(=O)O)NC(=O)[C@H](CSSC[C@H](NC(=O)[C@@H](N)Cc4ccc(O)cc4)C(=O)N[C@@H](CCC(N)=O)C(=O)N[C@@H](CCCCN)C(=O)N[C@@H](Cc4c[nH]c5ccccc45)C(=O)N[C@@H](CCCC)C(=O)N[C@@H](Cc4c[nH]c5ccccc45)C(=O)N[C@@H]([C@@H](C)O)C(=O)N2)NC(=O)[C@H](CSSC[C@@H](C(=O)N[C@@H](CCCNC(=N)N)C(=O)N[C@@H](CCCCN)C(=O)N[C@H](C(=O)N[C@@H](Cc2c[nH]c4ccccc24)C(N)=O)[C@@H](C)CC)NC(=O)[C@H](Cc2c[nH]c4ccccc24)NC(=O)[C@H](CC(C)C)NC(=O)[C@H](CCCCN)NC3=O)NC1=O [compound 291] | 100 | 38 | 
C#CC[C@H](N)C(=O)N[C@@H](Cc1ccc(O)cc1)C(=O)N[C@H]1CSSC[C@@H]2NC(=O)[C@@H]3CSSC[C@@H](C(=O)N[C@@H](CCCNC(=N)N)C(=O)N[C@@H](CCCCN)C(=O)N[C@H](C(=O)N[C@H](C(N)=O)[C@@H](C)CC)[C@@H](C)CC)NC(=O)[C@H](Cc4c[nH]c5ccccc45)NC(=O)[C@H](CC(C)C)NC(=O)[C@H](CCCCN)NC(=O)[C@H](CSSC[C@H](NC(=O)[C@H]([C@@H](C)O)NC(=O)[C@H](Cc4c[nH]c5ccccc45)NC(=O)[C@H](CCCC)NC(=O)[C@H](Cc4c[nH]c5ccccc45)NC(=O)[C@H](CCCCN)NC(=O)[C@H](CCC(N)=O)NC1=O)C(=O)N[C@@H](CC(=O)O)C(=O)N[C@@H](CO)C(=O)N[C@@H](CCCCN)C(=O)N[C@@H](CCCNC(=N)N)C(=O)N[C@@H](C)C(=O)N3)NC(=O)[C@H](CCC(=O)O)NC(=O)[C@H](CC(C)C)NC(=O)CNC(=O)[C@H](CCC(=O)O)NC2=O [compound 297] | 642 | 431 | 
CC[C@H](C)[C@H](NC(=O)[C@H](CCCCN)NC(=O)[C@H](CCCNC(=N)N)NC(=O)[C@@H]1CSSC[C@@H]2NC(=O)[C@H](C)NC(=O)[C@H](CCCNC(=N)N)NC(=O)[C@H](CCCCN)NC(=O)[C@H](CO)NC(=O)[C@H](CC(=O)O)NC(=O)[C@@H]3CSSC[C@H](NC(=O)[C@H](CCCNC(=N)N)NC(=O)[C@H](CC(C)C)NC(=O)CNC(=O)[C@H](CCC(=O)O)NC(=O)[C@H](CSSC[C@H](NC(=O)[C@@H](N)Cc4ccc(O)cc4)C(=O)N[C@@H](CCC(N)=O)C(=O)N[C@@H](CCCCN)C(=O)N[C@@H](Cc4c[nH]c5ccccc45)C(=O)N[C@@H](CCSC)C(=O)N[C@@H](Cc4c[nH]c5ccccc45)C(=O)N[C@@H]([C@@H](C)O)C(=O)N3)NC2=O)C(=O)N[C@@H](CCCCN)C(=O)N[C@@H](CC(C)C)C(=O)N[C@@H](Cc2c[nH]c3ccccc23)C(=O)N1)C(=O)N[C@@H](CCC(=O)O)C(N)=O [compound 70] |  |  | Nav1.6/Nav1.7 (hNav1.6; ratio of PX tonic IC50 values): >38; IC50 (hNav1.6; read-out: PX hNav1.6 Tonic IC50): > 10 µM; IC50 (hNav1.4 [3]; IonWorks Quattro, read-out: IC50 (μM) Nav1.4): > 5 µM; Nav1.4/Nav1.7 (hNav1.4 [3]; ratio of IonWorks Quattro IC50 values): 18; IC50 (hNav1.3): 5 µM; IC50 (hNav1.7 [4]): 0.28 µM; IC50 (hNav1.5 [5]): > 5 µM; IC50 (hNav1.7 [6]; Table 15, read-out: PX hNav1.7 Tonic IC50): 0.261 µM; Nav1.4/Nav1.7 (hNav1.7 [6]; [7]): 43; Nav1.5/Nav1.7 (hNav1.7 [6]; [7]): >38

Source: patent publication US10344060B2 (priority 2013, dated 2019)
